Key:
Format in all cases: functional
[1] = system: Staphylococcus aureus; experiment: Antibacterial activity against Staphylococcus aureus ATCC 29213 at 100 ug/disk by standard disk assay; settings: read-out: IZ
[2] = system: Candida albicans; experiment: Antifungal activity against Candida albicans ATCC 14053 at 200 ug/disk by standard disk assay; settings: read-out: IZ
[3] = system: Sordaria fimicola; experiment: Antifungal activity against Sordaria fimicola NRRL 6459 assessed as reduction in radial growth at 200 ug/disk by centerpoint inoculation disk assay; parameters: scale not given: the % may be the effect or the level left
[4] = system: Ascobolus; experiment: Antifungal activity against Ascobolus furfuraceus NRRL 6460 assessed as reduction in radial growth at 200 ug/disk by centerpoint inoculation disk assay; parameters: scale not given: the % may be the effect or the level left
[5] = system: Bacillus subtilis; experiment: Antibacterial activity against Bacillus subtilis ATCC 6051 at 100 ug/disk by standard disk assay; settings: read-out: IZ

Structure (SMILES)	zone of inhibition at 100 µg/disc [1] [mm]	zone of inhibition at 200 µg/disc [2] [mm]	Activity [3] [%]	Activity [4] [%]	zone of inhibition at 100 µg/disc [5] [mm]
COc1nc(C(C)C)c(O)nc1[C@H](O)c1ccccc1 [TEREZINE A]	8	8	95	95	8
CC(C)=CCc1cccc2c(C[C@@H]3NC(=O)[C@H](C)NC3=O)c[nH]c12 [TEREZINE D]			50		
COC1=N[C@@](OC)(C(C)C)C(=O)N[C@@]1(O)[C@H](O)c1ccccc1 [TEREZINE C]	8		41		8
COC1=N[C@](OC)(C(C)C)C(=O)N[C@@]1(O)[C@H](O)c1ccccc1 [TEREZINE B]					8
